Experiments:
trypsin = assay: Casein-resorufin protease assay: inhibition of trypsin by α-1-PI; type: biochemical; details: 3 μg Trypsin + 6.6 μg α-1-PI; 300 μL
Method: (§1) A protease activity using casein-resorufin as a protease substrate was performed to determine the effect of SCM factor on inhibition of the serine proteases trypsin, elastase, and cathepsin G by the serine protease inhibitor α-1-PI. The protocol provided by the manufacturer, Boehringer-Mannheim Biochemica, was followed to assay protease activity. […] However, when SCM factor was added before α-1-PI or simultaneously in a mixture with α-1-PI, it prevented the inhibition of trypsin by α-1-PI. The degree of this effect depended on the quantity of SCM factor added. […] The active portion of the molecule that prevents inhibition of the proteolytic enzymes by α- 1-PI resides within the first seven amino-terminal amino acid residues of the SCM factor. This portion of the molecule is designated "fraction 6" or F6. The effectiveness of equimolar amounts of the peptide F6, as compared to the entire SCM factor molecule (Table 20) in preventing the inhibition of elastase by α-1-PI is shown in Table 22.

elastase = assay: Casein-resorufin protease assay: inhibition of elastase by α-1-PI; type: biochemical; details: 3.2 μg Elastase + 6.6 μg α-1-PI
Method: as §1

cathepsin G = molecular target: T1, cathepsin G (Homo sapiens, UniProt P08311); assay: Casein-resorufin protease assay: inhibition of cathepsin G by α-1-PI; type: biochemical; details: 1 μg Cathepsin G + 6.6 μg α-1-PI; 300 μL
T1 sequence (P08311 21-244 limits assumed): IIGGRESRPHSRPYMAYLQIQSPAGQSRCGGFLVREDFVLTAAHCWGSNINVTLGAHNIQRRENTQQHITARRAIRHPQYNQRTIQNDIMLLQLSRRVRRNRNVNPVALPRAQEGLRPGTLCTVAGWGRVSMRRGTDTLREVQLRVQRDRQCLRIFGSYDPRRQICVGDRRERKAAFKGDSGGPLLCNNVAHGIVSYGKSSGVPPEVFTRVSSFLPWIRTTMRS
Method: as §1

[1] = test system: SCM-responding lymphocytes; assay: SCM-response modifying effect of α-1-PI (SCM test after preincubation and washing); type: cell-based, human; details: 2.5 hr α-1-PI + 3X Wash
Method: SCM-responding lymphocytes were isolated from blood samples of a patient with malignant melanoma and from a normal, healthy donor. Half of the lymphocyte suspension from each sample was incubated with 30 nanomoles of α-1-PI per 6×10^6 cells for 2.5 hours at 37° C.; the other half was retained as an untreated control. The cells were then washed three times with PBS. Aliquots from both the untreated controls and the α-1-PI-treated samples were challenged for 40 min with phytohemagglutinin (PHA) or SCM factor. […] The RRSCM was 1.74 in the absence of incubation and 1.68 after incubation.

Trypsin Activity in Casein-Resorufin Assay as % of Untreated Control Enzyme (trypsin): 13.6% | Trypsin Activity in Casein-Resorufin Assay as % of Untreated Control Enzyme (elastase; 300 μL (Table 20)): 3.5% | Cathepsin G Activity in Casein-Resorufin Assay as % of Untreated Control Enzyme (cathepsin G): 20.0%
Substance: α-1-PI: glycoprotein serine protease inhibitor, 55,000 daltons, single chain of 394 residues
Elastase Activity in Casein-Resorufin Assay as % of Untreated Control Enzyme (elastase; 300 μL (Table 22)): 3.4% | RRSCM ([1]; lymphocyte donor Healthy): 1.68 | RRSCM ([1]; lymphocyte donor Malignant Melanoma): 1.8
